Assay results from publication PMC2684828 (Analytical chemistry, 2009).

Molecular target: T1, Cytochrome P450cam (CYP101) (Pseudomonas putida, UniProt P00183)
T1 sequence (P00183 2-415): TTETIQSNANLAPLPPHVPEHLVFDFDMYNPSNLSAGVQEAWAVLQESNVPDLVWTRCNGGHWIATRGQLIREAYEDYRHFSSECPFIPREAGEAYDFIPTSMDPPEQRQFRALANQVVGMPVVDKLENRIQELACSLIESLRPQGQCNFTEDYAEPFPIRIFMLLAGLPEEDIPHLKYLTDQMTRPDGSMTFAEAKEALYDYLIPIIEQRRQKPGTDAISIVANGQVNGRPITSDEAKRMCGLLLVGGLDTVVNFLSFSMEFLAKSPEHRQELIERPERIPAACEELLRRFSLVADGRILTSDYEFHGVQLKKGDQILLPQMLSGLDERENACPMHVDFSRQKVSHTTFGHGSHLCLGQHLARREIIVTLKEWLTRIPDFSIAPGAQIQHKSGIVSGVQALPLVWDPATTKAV
Assay: enzyme/DNA film biosensor
Assay type: biochemical

| SMILES | Ki |
| --- | --- |
| O=C(O)Cc1c[nH]cn1 [Imid.4AA, imidazole-4-acetic acid] | 142 µM |
| c1c[nH]cn1 [Imid., imidazole] | 245 µM |
